The results in this text go back to PubChem BioAssay (NCI).

Where “and” joins values, the source holds several entries; their conditions need not be identical. Equal entries are not always repeated.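 A five-concentration, 48-hour dose response in 96-well plates underlies each endpoint, interpolated linearly between surrounding concentrations. Here, GI50 denotes the concentration required for 50% inhibition of growth. TGI: concentration producing complete growth inhibition.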 Numbered stars: 1 amine (or outer) side, 2 acyl side, 3 side chain; on linkers, the order of the positions; unused ones are H or OH. *1 amine or outer side, *2 acyl side, *3 side chain or, on linkers, in order; H or OH if unused. Bridge positions count the residues as written; N and C are the ends. Where a SMILES comes first, the peptide text is derived from it. Square brackets hold non-standard residues; d marks the D form. Peptide text beside a SMILES is read from it. I, II: the chains in the order shown. [ ]: non-standard residue; d: D form. The star is where a group is joined. Actinocin(9to1) = Cc1c2oc3c(C)ccc(C(=O)[*:1])c3nc-2c(C(=O)[*:2])c(N)c1=O; X11 = C/C=C/CC(C)C(O)[C@H](N[*:1])C(=O)[*:2]; aThr = C[C@H](O)[C@H](N)C(=O)O; NMeV = CN[C@H](C(=O)O)C(C)C; Decanoyl = CCCCCCCCCC(=O)*; Leu(ol) = CC(C)C[C@H](N)CO; Aib = CC(C)(N)C(=O)O; Sar = CNCC(=O)O

This assay concerns MDA-MB-468 breast. Description: NCI tumour cell line growth inhibition, 48 h.
As to `CC/C(=C(/c1ccc(OCCN(C)C)cc1)c1ccc(OC(=O)CCCCCCCCC(=O)c2c(C)[nH]c(/C=C3\N=C(c4ccc[nH]4)C=C3OC)c2C)cc1)c1ccccc1`, the GI50 was 3620 nM and the TGI was above 100000 nM.

For `CN1CCN(Cc2ccc(NC(=O)c3cncc(C#Cc4cnc5ccc(OCCCS(C)(=O)=O)nn45)c3)cc2C(F)(F)F)CC1`, the GI50 is 684 nM and the TGI came out at 1680 nM.

Regarding `O=C(Nc1cccc(-n2cc(-c3ccncc3)c(-c3ccc(Cl)c(O)c3)n2)c1)Nc1ccc(Cl)c(Cl)c1`, the GI50 was 729 nM and the TGI came to 4250 nM.

For the molecule `CCc1ccc(SC2c3ccc(N(CC)CC)cc3Oc3nc(N)c(C#N)c(N)c32)cc1` (stereo not drawn), the GI50 is 1580 nM and the TGI was determined as 3060 nM.

In the case of `Cc1c2oc3c(C)ccc(C(=O)N[C@@H]4C(=O)N[C@H](C(C)C)C(=O)N5CCC[C@H]5C(=O)N(C)CC(=O)N(C)[C@@H](C(C)C)C(=O)O[C@H]4C)c3nc-2c(C(=O)N[C@@H]2C(=O)N[C@H](C(C)C)C(=O)N3CCC[C@H]3C(=O)N(C)CC(=O)N(C)[C@@H](C(C)C)C(=O)O[C@H]2C)c(N)c1=O` (I: [aThr][dV]P[Sar][NMeV] / II: [aThr][dV]P[Sar][NMeV]; ester I:1-I:C, II:1-II:C; linker I:N-II:N via Actinocin(9to1)), the TGI is 48.5 nM and 15.7 nM.

On to `CC(=O)Nc1cc2c3c(cccc3c1)-c1ccccc1-2`, for which the GI50 was 37400 nM and the TGI was above 100000 nM.

For `Nc1c(C(=O)Nc2cccc(C(F)(F)F)c2)sc2nc3c(cc12)CCCCCC3`, the GI50 was 798 nM and the TGI stood at 3320 nM.

`Fc1ccc(Nc2nc3nonc3nc2Nc2ccc(I)cc2)cc1`: the GI50 was 251 nM and the TGI was 790 nM.

With `COc1cc(C)[nH]c(=O)c1CNC(=O)c1c(C)n([C@H](C)C2CCN(CC(F)(F)F)CC2)c2ccccc12`, the GI50 is 24900 nM and the TGI was above 100000 nM.

Take `Nc1ncnc2c1ccn2-c1cccc(NC(=O)c2ccc(N3CCOCC3)c(C(F)(F)F)c2)c1`: the GI50 is 2130 nM and the TGI was 7070 nM.

Regarding `COC(=O)c1c2c(c(C)[n+]([O-])c1C)C(=O)C(NCc1ccc(O)cc1)=CC2=O`, the GI50 is 402 nM and the TGI came to 1740 nM.

Regarding `C[C@]12CC[C@H]3[C@@H](CC[C@]4(O)C[C@@H](O[C@@H]5O[C@H](CO)[C@@H](O[C@@H]6OC[C@@H](O)[C@H](O)[C@H]6O)[C@H](O)[C@H]5O)CC[C@]34C=O)[C@@]1(O)CC[C@@H]2C1=CC(=O)OC1`, the GI50 is 10000 nM and the TGI came to 32300 nM.

For `CN1CCN(Cc2ccc(NC(=O)c3cncc(C#Cc4cnc5ccc(N)nn45)c3)cc2C(F)(F)F)CC1`, the GI50 was 852 nM and the TGI came to 3240 nM.

Turning to `CCN1C(=O)N(CC)C2SC(N/N=C/c3cccs3)=NC21` (stereo not drawn), the GI50 was 253 nM and the TGI is 16600 nM.

Regarding `CN1CCN(Cc2ccc(NC(=O)c3cncc(C#Cc4cnc5ccc(N6CCOCC6)nn45)c3)cc2C(F)(F)F)CC1`, the GI50 was 73.5 nM and the TGI is 165 nM.

As for `CCN(CC)CC(O)c1cc(-c2ccc(Cl)cc2)nc2c(C)c(Cl)ccc12` (stereo not drawn), the GI50 was 1890 nM and the TGI came to 3420 nM.

Regarding `O=C1c2ccc3c4c(ccc(c24)C(=O)N1CCNCc1ccccc1)C(=O)N(CCNCc1ccccc1)C3=O`, the GI50 was 1590 nM and the TGI worked out at 3100 nM.

As to `COc1cc(N(CCCl)CCCl)ccc1/C=N\NC(=O)c1cccnc1`, the GI50 is 1280 nM and the TGI is 6830 nM.

Regarding `CCCCCCCCCCCCCCCCCC[S+](C)CC` (stereo not drawn), the GI50 is 527 nM and the TGI is 2660 nM.

With `CN(C)C1CN(C(=O)c2cc(-c3ccc4ncnc(N5CCc6cc(F)c(Cl)cc65)c4c3)cnc2N)C1`, the GI50 is 254 nM and the TGI worked out at 1070 nM.

For the molecule `Cc1cnc(-c2ccc(-c3ccc(NC(=O)Nc4c(F)cc(F)cc4F)cc3F)c3c2C(=O)NC3)[nH]1`, the GI50 is 1480 nM and the TGI came to 3860 nM.

Regarding `COc1ccc(/C=C\c2cc(OC)c(OC)c(OC)c2)c(NS(=O)(=O)c2ccc(F)cc2)c1O`, the GI50 was 69.2 nM.

`C/C=C/CC(C)C(O)[C@H](NC(=O)[C@@H]1CCCN1C(=O)C(C)(C)NC(=O)CCCCCCCCC)C(=O)NC(C)(C)C(=O)N[C@@H](CCC(N)=O)C(=O)N[C@H](CCC(N)=O)C(=O)NC(C)(C)C(=O)NC(C)(C)C(=O)N[C@@H](CCC(N)=O)C(=O)N[C@H](CC(C)C)C(=O)N[C@H](CO)CC(C)C` (stereo partly drawn) (Decanoyl-[Aib]P[X11][Aib]Q[dQ][Aib][Aib]Q[dL][Leu(ol)]): the GI50 is 1490 nM and the TGI worked out at 2980 nM.

In the case of `CN(C)CCCCNc1ccc(NCCCCN(C)C)c2c1C(=O)c1c(O)ccc(O)c1C2=O`, the GI50 is 13700 nM and the TGI was found to be 26500 nM.

For `CC[C@@H](C)/C=C(C)/C=C/C(=O)c1c(O)c(-c2ccc(O)cc2)cn(OC2CC(=O)CCC(C)OC(=O)CC2O)c1=O` (stereo partly drawn), the GI50 was 239 nM and the TGI is 852 nM.

For `Nc1nc(N)c2c(n1)CCC(S(=O)(=O)c1ccc3ccccc3c1)C2` (stereo not drawn), the GI50 is 2250 nM and the TGI was determined as 33000 nM.

As for `CN1CCN(CCC=C2c3ccccc3Sc3ccc(S(=O)(=O)N(C)C)cc32)CC1`, the GI50 was 1380 nM and 1530 nM; the TGI was 2970 nM and 4260 nM.

With `COc1cc(C(=O)NN=C2c3ccccc3-c3ccccc32)cc(OC)c1OC`, the GI50 is 3470 nM and the TGI worked out at 41900 nM.

As to `C=CC(=O)N1CCC[C@@H](n2nc(-c3ccc(Oc4ccccc4)cc3)c3c(N)ncnc32)C1`, the GI50 is 67.4 nM and the TGI turned out to be 1240 nM.

With `CCCCCCCCCCCCCCCCCCOc1ccccc1COP(=O)(O)OOCC[N+](C)(C)C`, the GI50 was 493 nM and the TGI amounted to 1470 nM.

`NC1(C(=O)N[C@@H](CCO)c2ccc(Cl)cc2)CCN(c2ncnc3[nH]ccc23)CC1`: the GI50 was 128 nM and 162 nM; the TGI was 1170 nM and 2210 nM.

As for `CCCCOC(=O)c1c(C)[nH]c(/C=C2\N=C(c3ccc[nH]3)C=C2OC)c1C`, the GI50 is 451 nM and the TGI is 2020 nM.

Take `O=C(/C=C/C=C/c1ccc2c(c1)OCO2)N/N=C\c1ccc(O)cc1O`: the GI50 is 1660 nM and the TGI was found to be 5730 nM.

Consider `Cc1cc(-c2cc(OC(=O)c3ccccc3)ccc2Cl)cc2nnc(Nc3ccc(OCCN4CCCC4)cc3)nc12`, for which the GI50 was 1320 nM and the TGI stood at 2910 nM.

For `COc1cc(N2CCC(N)CC2)ccc1Nc1ncc(Cl)c(-c2c[nH]c3ccccc23)n1`, the GI50 is 415 nM and the TGI worked out at 1740 nM.

In the case of `CC[C@@]1(O)C(=O)OCc2c1cc1n(c2=O)Cc2c-1nc1cc(F)c(C)c3c1c2[C@@H](NC(=O)CO)CC3`, the GI50 was below 10 nM and the TGI is below 10 nM.

Regarding `Nc1n[nH]c2ccc([C@@H]3Nc4ccc5cn[nH]c5c4[C@H]4C5CCC(C5)[C@@H]34)cc12` (stereo partly drawn), the GI50 is 330 nM and the TGI stood at 5040 nM.

As to `COc1cc(C2CC(c3cccc(Nc4ccnc5cc(Cl)ccc45)c3)=NN2c2ccccc2)cc(OC)c1OC` (stereo not drawn), the GI50 was 20100 nM and the TGI is above 100000 nM.

As to `Cc1cc(C)c2c(c1)N(C)c1ncnc(-n3cnc4cc(C)ccc43)c1CC2C` (stereo not drawn), the GI50 was 3240 nM and the TGI amounted to 27000 nM.

With `COC(=O)[C@]12CC[C@@H](C)[C@H](C)[C@@H]1C1=CC[C@@H]3[C@@](C)(CC#N)C4=C(C[C@@]3(C)[C@]1(C)CC2)OC[C@]4(C)C=O`, the GI50 was 10700 nM and the TGI turned out to be 42300 nM.
